Measurements reported in patent US20240361301A1, “METHODS AND COMPOSITIONS FOR MODULATING GOBLET CELLS AND FOR MUCO-OBSTRUCTIVE DISEASES” (Flagship Pioneering Innovations VI, LLC, priority 2021, published 2024).

Key:
[1] = test system: Human bronchial epithelial cells (HBECs) from COPD donors; assay: IL-13 induced goblet hyperplasia in COPD donor HBEC air-liquid interface culture, qPCR; assay type: cell-based; details: 0.3 ng/ml IL-13, ALI day 14, vs DMSO
Text: Air-liquid interface (ALI) differentiation of primary human bronchial epithelial cells (HBECs) is an accepted in vitro model of IL-13-induced goblet cell hyperplasia. HBECs were initially thawed into T75 flasks in PneumaCult maintenance media, allowed to expand, then seeded into apical chamber of transwells. After reaching confluency, medium was removed from the apical and basal chambers, and replaced only in the basal chamber with complete PneumaCult-ALI Medium to start air-liquid interface (ALI) differentiation. Cells were differentiated under ALI conditions for 14 days, in presence or absence of IL-13. Medium in the basal chamber containing IL-13 and test compounds was replenished 3 times a week, and excess mucus was washed from the apical chamber with PBS twice a week starting on day 7. At day 14, differentiation to goblet, ciliated, and club cells is assessed by histology (IHC) or qPCR, using goblet marker (Muc5ac), ciliated cell markers (Foxj1, Acetyl α-tubulin) and club cell marker (Scgb1a1) (FIG. 5).
Human bronchial epithelial cells (HBECs) from two COPD donors were differentiated in the presence of 0.3 ng/ml IL-13 and test compounds. At day 14, cultures were processed for qPCR, and evaluated for lung epithelial markers: goblet (Muc5ac), ciliated (Foxj1), club (Scgb1a1). 2^-ΔCt values were transformed to log form and normalized to DMSO. […]

[2] = test system: mouse intestinal organoids; details: factors known to induce markers of the intestinal lineages (Yin et al.), ENR media; cited from earlier work
[3] = test system: mouse intestinal organoids; assay: Mouse small intestinal organoid differentiation, lineage markers by Q-PCR; assay type: cell-based; details: mouse intestinal organoids in ENR media, after 5 days of treatments, FIG. 1
Text: Cryopreserved mouse intestinal organoids derived from small intestine were obtained from Stem Cell Technologies. The organoids were thawed and propagated in Intesticult Growth Medium (Mouse) (purchased from Stem Cell Technologies) following the company's instructions. Briefly, approximately 100 organoid fragments/well are embedded in 6 Matrigel domes in 6-well plates and growth media is renewed every 2-3 days. The organoids are passaged every 5-6 days in 1:4 ratio. To assess the potential of the predicted perturbations to induce or reduce the goblet cell lineage during organoid differentiation, an in vitro assay was established to induce the various intestinal lineages (enterocytes, goblet cells, Paneth cells, Enteroendocrine cells) based on published data (Yin et al, Nat. Meth. 2013). Briefly, organoid fragments are embedded in Matrigel and grown in custom-made media in the presence of EGF, Noggin, Rspondin (ENR) supplemented with the indicated factors (Table 4) that are known to induce markers of the various intestinal lineages. The expression of markers and the induction of the various cell lineages was assessed by Q-PCRs after 5 days of treatments (FIG. 1). Further characterization of the organoids will be performed by immunofluorescence staining and flow cytometry. For immunofluorescence commercially available antibodies against Muc2, ChrA, and ALPI will be used.

Row | SMILES | goblet cells / goblet hyperplasia (Muc5ac qPCR) ([1]; FIG. 6A) | differentiation to ciliated (Foxj1) and club (Scgb1a1) cells (qPCR) ([1]; FIG. 6B-6C) | Cell lineage induced by factor [2] | expression of muc2 gene, a marker of Goblet cells (Q-PCR) [3]
1 | CC[C@H]1OC(=O)[C@H](C)[C@@H](O[C@H]2C[C@@](C)(OC)[C@@H](O)[C@H](C)O2)[C@H](C)[C@@H](O[C@@H]2O[C@H](C)C[C@H](N(C)C)[C@H]2O)[C@](C)(O)C[C@@H](C)CN(C)[C@H](C)[C@@H](O)[C@]1(C)O [C] | inhibited goblet cells | promoting or maintaining differentiation to ciliated and club cells |  | 
2 | C[C@H](NC(=O)Cc1cc(F)cc(F)c1)C(=O)N[C@H](C(=O)OC(C)(C)C)c1ccccc1 [DAPT] |  |  | Enteroendocrine Cells, Paneth | induces the expression of muc2 gene
3 | Cc1ccc2nc(NC(=O)CSc3nc4c(c(=O)n3-c3ccccc3)SCC4)sc2c1 [IWP2] |  |  | Enterocytes, Enteroendocrine Cells | 
